For series [1] the following is noted: humans; cited from earlier work.
Series [2] is described as follows: Stability of Re complex in aqueous solution by ^1H NMR. The series is classed as physicochemical. The note with it: D2O, pH 7.

Regarding `O=C([O-])CN=C([O-])CN=C([O-])CN=C([O-])C[S-].[O-2].[Tc+4]` [^99mTc-MAG3, ^99mTc-mercaptoacetyltriglycine], in series [1], the “clearance as percent of that of ^131I-OIH” value is ~ 60%. In the case of Na[Re(CO)3(FEDA)] [Re-4], the “stability in aqueous solution (^1H NMR signals)” value in series [2] is on record as “no change for weeks”.
